Results published in the NIST ThermoML archive (doi:10.1016/j.tca.2006.01.013).

Assay: xn = mol fraction of the nth substance listed
Details: 101 kPa, Liquid, Vibrating tube method

NCCN [ethane-1,2-diamine] + O
mass density [kg/m3]
Details | 323.15 K | 328.15 K | 333.15 K | 338.15 K | 343.15 K | 348.15 K | 353.15 K
x2 = 0.0401 | 872.83 | 868.06 | 863.25 | 858.43 | 853.59 | 848.71 | 843.82
x2 = 0.0797 | 876.97 | 872.2 | 867.42 | 862.6 | 857.77 | 852.91 | 848.01
x2 = 0.1199 | 881.48 | 876.73 | 871.95 | 867.15 | 862.33 | 857.47 | 852.59
x2 = 0.1598 | 886.3 | 881.56 | 876.8 | 872.01 | 867.2 | 862.35 | 857.48
x2 = 0.2003 | 891.39 | 886.66 | 881.91 | 877.13 | 872.32 | 867.48 | 862.61
x2 = 0.25 | 897.71 | 892.99 | 888.25 | 883.48 | 878.68 | 873.85 | 868.98
x2 = 0.2999 | 904.5 | 899.79 | 895.05 | 890.29 | 885.49 | 880.67 | 875.81
x2 = 0.3497 | 911.88 | 907.18 | 902.45 | 897.69 | 892.89 | 888.07 | 883.2
x2 = 0.3998 | 919.54 | 914.84 | 910.11 | 905.35 | 900.55 | 895.73 | 890.86
x2 = 0.4504 | 927.55 | 922.85 | 918.12 | 913.36 | 908.57 | 903.74 | 898.87
x2 = 0.5001 | 935.8 | 931.11 | 926.38 | 921.62 | 916.83 | 912 | 907.14
x2 = 0.5499 | 944.38 | 939.7 | 934.98 | 930.23 | 925.44 | 920.62 | 915.76
x2 = 0.5998 | 952.77 | 948.12 | 943.43 | 938.7 | 933.95 | 929.15 | 924.32
x2 = 0.6499 | 960.7 | 956.11 | 951.49 | 946.83 | 942.13 | 937.39 | 932.61
x2 = 0.7004 | 967.91 | 963.45 | 958.96 | 954.42 | 949.83 | 945.19 | 940.53
x2 = 0.7499 | 973.34 | 969.1 | 964.81 | 960.46 | 956.08 | 951.64 | 947.14
x2 = 0.8 | 976.78 | 972.86 | 968.88 | 964.84 | 960.73 | 956.56 | 952.33
x2 = 0.84 | 978.35 | 974.76 | 971.09 | 967.34 | 963.52 | 959.62 | 955.65
x2 = 0.88 | 979.3 | 976.06 | 972.74 | 969.32 | 965.81 | 962.21 | 958.53
x2 = 0.9193 | 980.41 | 977.53 | 974.54 | 971.43 | 968.22 | 964.91 | 961.5
x2 = 0.9599 | 982.91 | 980.35 | 977.65 | 974.83 | 971.88 | 968.82 | 965.65
